Consider 90 compounds from a melting point compilation (Tetko et al.; mined from patent text by program, amines drawn as free bases though some values may be those of a salt).

Each structure is given as a SMILES string.

What is called melting point is the temperature of the solid-liquid transition.

`COc1nn(-c2cccc(NC(C)=O)c2)c(=O)n(Cc2ccc3c(c2)OC(F)(F)O3)c1=O` displayed a melting point of 184 °C. `Cc1cc(Oc2ccc([N+](=O)[O-])c(C(F)(F)F)c2)n[nH]1`: the melting point lay in the range of 96 to 98 °C.

The compound `Cn1ncnc1COc1nn2c(-c3cc(F)ccc3F)nncc2c1-c1ccccc1` yielded a melting point of 199 °C. The figure for `COc1cc2c(cc1OC)-c1cc(OC)c(OC)cc1C1CN3C(=O)CCC3C=C21` (stereo not given) is 252 to 254 °C; for `C1=NC2=C(CCC1)CSC2` it is 55 to 57 °C.

Consider `N#Cc1c(N2CCCCC2)cc(-c2ccc3ccc4cccc5ccc2c3c45)c2c1C(=O)c1ccccc1-2`, for which the melting point lay within 180 to 182 °C.

In the case of `OC1CC(NCc2ccccc2)c2ccccc21` (stereo not given), the melting point was in the range of 125 to 127 °C. The figure for `CSc1nc(=O)n(C2CCCCC2)c(=O)n1C` is 137 to 139 °C; for `CN1C(=O)C(c2ccc(OC(F)(F)F)cc2)(C23CC4CC(CC(C4)C2)C3)N=C1N` (stereo not given) it is 125 °C.

Compound `CC/C=C/CNC(=O)[C@H]1N(C(=O)[C@@H](O)[C@H](Cc2ccccc2)NC(=O)c2cccc(O)c2C)CSC1(C)C` came in with a melting point of 113 to 115 °C. `COC(=O)CN(C=O)C1c2ccccc2CC1(C)C` (stereo not given) showed a melting point of 172 to 173 °C. `COc1ccc(C(=O)C2C(=O)N(C(N)=O)c3ccc(Cl)cc32)s1` (stereo not given) had a melting point of 180 to 182 °C. The figure for `O=Cc1c[nH]c2c1ccc1c2[nH]c2cccc(Br)c21` is above 250 °C; for `CCC(=O)c1c(CC)n(Cc2ccccc2Cl)c2cc(-c3nnn[nH]3)ccc12` it is 178 to 181 °C. The figure for `CCCCCCCOc1ccc(N=Nc2ccc([N+](=O)[O-])cc2)cc1` is 82.3 to 83.2 °C; for `CCOC(=O)CN1CCc2c(sc(N)c2C(=O)c2ccccc2)C1` it is 115 to 117 °C; for `Cn1cc(-c2nnn[nH]2)c(=O)c2ccccc21` it is 306 °C.

`CC(C)c1cc(C(C)C)c(CC(=O)O)c(-c2ccc(F)cc2)c1CO` gave a melting point of 124 to 126 °C.

For `O=c1cc(C(F)(F)F)c2ccc(N3CCOCC3)nc2o1`, the melting point lay within 218 to 220 °C.

With `N#Cc1ccc2c(c1)C1(c3ccccc3-2)c2ccccc2-c2ccc(C#N)cc21`, the melting point was in the range of 215 to 245 °C. In turn, `O=[N+]([O-])c1cc([N+](=O)[O-])c(Nc2cccc3c2OC(F)(F)O3)c(C(F)(F)F)c1` gave a melting point of 144 to 146 °C. `CCN(CC)CCNC(=O)c1ccc(N(S(C)(=O)=O)S(C)(=O)=O)cc1OC` displayed a melting point of 144 °C.

As to `CN(C)S(=O)(=O)c1ccccc1-c1ccc2c(c1)S(=O)(=O)NC(C1CCCCC1)N2` (stereo not given), the melting point was 290 to 300 °C.

In turn, `CC(C)Oc1ccc(CCCCOc2cc(CCC(=O)O)n(C(C)C)n2)c(Oc2ncc(C(F)(F)F)cc2Cl)c1` yielded a melting point of 99.5 to 100 °C. The figure for `O=c1[nH]c(NCCCn2ccnc2)nc2c1ncn2C1CC(O)C(CO)O1` (stereo not given) is 245 to 247 °C; for `CN1CC(c2nccc(CCc3ccccc3)n2)=C(O)C1=O` it is 118 to 119 °C. The figure for `CC(C)NC(=S)N1CCc2[nH]cnc2C1C(C)C` (stereo not given) is 203 °C.

As to `COc1c(O)c(C(C)=O)c(OC)c2c1OCC2`, the melting point was in the range of 100 to 101 °C.

In the case of `CC(=O)OCC1CC(=O)NN=C1c1ccc(N2CCOCC2)c(C#N)c1` (stereo not given), the melting point lay within 60 to 69 °C. `CCc1nc2c(o1)C(=O)C=CC2=O`: the melting point is 99 °C. The figure for `O=c1c2ccc(Cl)cc2[nH]n2cccc12` is above 300 °C; for `COc1cc(OC)cc(C(=O)NC(NC(=NC#N)Nc2cccnc2OC)C(C)(Cl)Cl)c1` (stereo not given) it is 198 to 199 °C. For `COc1ccc2c(c1)CCC1CCNC(=O)C(CC(C)NC(C)C)=C21` (stereo not given), the melting point was 118 to 126 °C. Consider `Cc1nc2n(c(=O)c1CCN1CCC(c3n[nH]c4cc(F)ccc34)CC1)CCS2`, for which the melting point stood at 208 °C.

`CNc1cc(C)c(O)c(C)c1C` had a melting point of 120 to 122 °C.

The compound `COc1ccc(Cc2nc(C)c[nH]2)cc1` returned a melting point of 108 to 109 °C. `Cc1cc(C=O)ccc1-c1ccc(O)cc1` came in with a melting point of 94 to 96 °C. Turning to `Cc1cc(C(C)N(O)C(N)=O)ccc1OC(C)c1ccccc1` (stereo not given), the melting point fell in the range of 133 to 135 °C.

`COc1ccc(C=C(C)[N+](=O)[O-])c(OC)c1`: the melting point was 80 to 81 °C. The figure for `OC1(c2ccc(-c3ccccc3)cc2)CN2CCC1CC2` (stereo not given) is 165 to 166 °C. For the compound `CCN1CCCC1CNC(=O)c1ccc(Cl)nc1Cl` (stereo not given), the melting point fell in the range of 73 to 74 °C. `COc1cc(C2CCN(C(=O)C(C)(C)N)CC2)ccc1Nc1ncc2ccc(-c3ccccc3OC)n2n1` yielded a melting point of 81 to 89 °C. With `Cc1ccc(CCC(=O)O)cc1C`, the melting point amounted to 82 °C. For `O=C1CNN(Cc2cccc(C(F)(F)F)c2)C(=O)N1` the value was 152 °C; for `CC(/C=C/C=C(\C)C1=Cc2cc(C(C)(C)C)cc(C)c2OC1)=C\C(=O)O`, 227 to 228 °C; for `COc1cc2c(cc1Br)C(C)(C)CCC2(C)C`, 77 to 78 °C. Compound `CCCC(=O)c1cnc2c(O)cccc2c1Nc1ccccc1C` registered a melting point of 113 to 115 °C. For `CC(=O)OCc1ccc(-c2ccccc2-c2nnnn2C(c2ccccc2)(c2ccccc2)c2ccccc2)cc1` the value was 117 to 119 °C. For `CC(=O)NCC1CN(c2cc(F)c(N3CCN(C(=O)COC(=O)c4ccc(N(C)C)cc4)CC3)c(F)c2)C(=O)O1` (stereo not given) the value was 199 to 202 °C; for `Cc1ccc(S(=O)(=O)OC[C@H]2COc3ccc([N+](=O)[O-])cc3O2)cc1`, 138 °C. For the compound `C[C@@H](NC(=O)c1cccc(-c2ccc(Cl)cc2)c1)[C@](O)(Cn1cncn1)c1ccc(F)cc1F`, the melting point lay within 90 to 91 °C.

`CC(=O)c1ccc(N2CCN(CCC(=O)O)CC2)cc1` came in with a melting point of 204 to 206 °C.

`CCCCc1ncc(CO)c(NCc2ccc(-c3ccccc3)c(-c3nnnn3C(c3ccccc3)(c3ccccc3)c3ccccc3)c2)n1` came in with a melting point of 126 to 129 °C. Turning to `CCCC(=O)Nc1cscn1`, the melting point was in the range of 63 to 66 °C. For `O=[N+]([O-])c1c(NCC23CCCN2CCC3)cnc2ccccc12`, the melting point is 95 to 99 °C.

In turn, `CC(=O)C1CCC2C3CCC4=CC(=O)C=CC4(C)C3CCC12CO[N+](=O)[O-]` (stereo not given) registered a melting point of 148 to 150 °C. The figure for `Nc1ccccc1C(=O)NC(=O)Nc1ccc(Oc2ncc(Br)cn2)c(Cl)c1` is 196 to 200 °C; for `CCCc1c(OCc2ccc3ncc(CCC(=O)O)c(=O)n3c2)ccc(C(C)=O)c1O` it is 190 to 194 °C. For `COc1cc2c(=O)c(C#N)c[nH]c2cc1[N+](=O)[O-]` the value was 305 to 309 °C. For `CS(=O)c1ccc(CCCCl)cc1` (stereo not given) the value was 46 °C; for `Cc1c(C(=O)O)cnn1-c1nc(-c2cccc(Cl)c2)cs1`, 258 °C. The compound `COc1cccc2c1nc(C)n2C` returned a melting point of 122 to 124 °C. The figure for `CC(C)c1ccc(NC(=O)C2CCCc3ccccc32)cn1` (stereo not given) is 156 °C. For `NC(=S)Nc1ccccc1-c1ccc(Cl)cc1` the value was 175 to 177 °C; for `CCCCc1nn(-c2cc(NC(=O)CC)ccc2Cl)c(=O)n1Cc1ccc(-c2ccccc2S(=O)(=O)NC(=O)OC(C)(C)C)cc1`, 133 to 135 °C; for `O=C1Nc2c(Br)cc(Br)c3cccc1c23`, 259 to 260 °C. The figure for `CCCN1CCC23c4cccc(OC)c4OC2C2CCC3(C1=O)C(C(=O)OC)C2` (stereo not given) is 126 to 128 °C; for `CC(C)c1cccc(C(C)C)c1Oc1ccc(C#N)c(C#N)c1` it is 114 to 116 °C; for `CCOC(=O)C(C)(C)Oc1ccc(-c2ccc(CCNC(=O)c3ccc(C)cc3)cc2)cc1` it is 214 °C.

Regarding `O=[N+]([O-])c1c(Br)nn(Cc2ccccc2)c1Br`, the melting point was 128 °C. The figure for `NS(=O)(=O)c1cc(C(=O)O)cc(NCc2ccccc2)c1Oc1ccc(OCc2ccccc2)cc1` is 249 to 251 °C.

In turn, `CCOC(=O)C(=NNc1ccccc1)C(C)=O` had a melting point of 75 to 76 °C. As for `CCN1CCCC1CNC(=O)c1cc(S(C)(=O)=O)c(N)cc1OC` (stereo not given), the melting point lay in the range of 151 to 152 °C. In the case of `COC(=O)N(CC(=O)OC(C)(C)C)S(=O)(=O)c1ccc(N2CCC(NC[C@H](O)c3ccc(O)c(NS(C)(=O)=O)c3)CC2)cc1`, the melting point is 110 to 115 °C.

Turning to `CC(C)(N)c1cc(Cl)c(Cl)c(Cl)c1`, the melting point is 56 to 59 °C.

In turn, `CC(C)(COc1ccc(CC2SC(=O)NC2=O)cc1)c1ccccc1` (stereo not given) yielded a melting point of 107 to 108 °C.

On to `O=C(Nc1cccc(Cl)c1)c1cc2ccccc2s1`, for which the melting point stood at 179 °C. `N#Cc1nn(-c2c(Cl)cc(C(F)(F)F)cc2Cl)cc1C(=O)C1CC1` had a melting point of 195 to 197 °C. For the compound `CCOC(=O)COc1cc(C)c(C)c2c1CC(Br)C2=O` (stereo not given), the melting point is 71 to 73 °C. In turn, `O=C(Oc1ccccc1C(=O)NCCO[N+](=O)[O-])c1cccnc1` yielded a melting point of 94 to 96 °C. As to `CCCC1(CCC)Oc2c(ccc(O)c2C(C)=O)-c2ccccc21`, the melting point lay within 83 to 83.5 °C.

`Cc1nc(N2CCN(C(=O)c3ccco3)CC2)nnc1-c1ccccc1` came in with a melting point of 142 °C. For `N=C(c1ccccc1)c1ccccc1N` the value was 48 °C. As to `CCOC(=O)C(OCC)C(=O)Nc1cc(Cl)cc(Cl)c1` (stereo not given), the melting point was in the range of 84 to 86 °C. The figure for `COc1ccc(/C=C/c2ccncc2[N+](=O)[O-])cc1OC1CCCC1` is 114 to 116 °C; for `O=C1c2ccccc2OCN1CCO` it is 59 to 61 °C; for `CN1C(=O)CC[C@]2(C)c3ccc(-c4c(F)c(F)c(Cl)c(F)c4F)cc3CC[C@@H]12` it is 150 to 151 °C. Consider `Cc1ccc(F)cc1C(=O)Nc1ccc(C(=O)N2Cc3cccn3Cc3ccccc32)cc1`, for which the melting point fell in the range of 170 to 180 °C.

With `CC12CCC3C(CC=C4CC(F)CCC43C)C1CCC2=O` (stereo not given), the melting point fell in the range of 155 to 156 °C. For `Cc1c(C)c2c(c(C)c1O)CC[C@@](C)(CCO)O2`, the melting point amounted to 155 °C.
